In the METLIN SMRT retention time set (Domingo-Almenara et al. 2019):

Assay: gradient 5% acetonitrile 3 min, to 50% in 2 min, to 85% in 15 min, held 3 min, 100 µL/min
Conditions: column: Zorbax Extend-C18 2.1 x 50 mm; eluents: water / acetonitrile, 0.1% formic acid
Summary of the method: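 Retention times come from adduct peaks that were picked computationally and then checked by hand. The standards, pure and pooled in mixtures of ~100 molecules, were run on a Zorbax Extend-C18 column (2.1 × 50 mm, 1.8 μm) at 100 μL/min with water and acetonitrile, each with 0.1% formic acid. Detection was by quadrupole time-of-flight mass spectrometry in positive and negative ionization mode, with a dead volume of 40 μL and a dwell volume of 900 μL.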

| Structure (SMILES) | RP-LC retention time [s] |
| --- | --- |
| Cn1c(=O)c2c(NC(=O)c3ccco3)ccnc2n(C)c1=O | 757 |
| COc1ccc(NC(=O)Nc2nccn(-c3ccc(C(C)C)cc3)c2=O)cc1OC | 1010 |
| CCCN1C(=O)COc2ccc(-c3noc(Cc4ccc(OC)cc4)n3)cc21 | 1080 |
| Cc1cc(C(=O)N2CCCCC2)c2c(=O)n(Cc3ccc(Cl)cc3)c(=O)n(C)c2n1 | 1020 |
| COc1cccc(C(O)CN2CCN(c3ccc(F)cc3)CC2)c1 (stereo not given) | 660 |
| CCN(CC)C(=O)c1cnc2nc(C)ccc2c1Nc1ccc(C(C)=O)cc1 | 589 |
| CCc1c(C(=O)O)nnn1-c1cccc(Br)c1 | 757 |
| O=C(Nc1ccc(N2CCN(C3CCCC3)C2=O)nc1)c1cc(F)cc(F)c1 | 917 |
| CC1(C)CC(=O)c2cn(-c3ccccc3)c(=O)c(C(=O)N3CCc4ccccc43)c2C1 | 910 |
| CCc1noc(NC(C)=O)c1-c1ccc(C)c(S(=O)(=O)NCc2cccc(OC)c2)c1 | 807 |
| CCN1c2ccccc2C(=O)NC12CCN(C(=O)NCc1ccccc1)CC2 | 881 |
| COc1cccc(CNC(=O)C2(C)CCCN(C(=O)Nc3cccc(F)c3)C2)c1 (stereo not given) | 872 |
| Cc1nc2cc(N3CCCC(C(=O)NCCN4CCCCCC4)C3)cnc2nc1C (stereo not given) | 592 |
| CC(=O)c1cccc(NC(=O)Cn2cncc(C)c2=O)c1 | 598 |
| CC(C)NC(=O)C1(c2ccc(NC(=O)C(C)C)cc2)CCCCC1 | 851 |
| CC1=C(C(=O)N(CC(=O)NCc2ccc(C)cc2)c2ccc(Cl)cc2)SCCO1 | 1010 |
| COc1ccc(Cc2nnc3sc(-c4ccccc4OC)nn23)cc1 | 976 |
| O=C(O)c1cn(-c2ccc3c(c2)OCO3)nn1 | 645 |
| CN(CC(=O)N1CCN(C2CCCCC2)CC1)S(=O)(=O)c1ccc2c(c1)CCCC(=O)N2 | 602 |
| Cc1ccnc(OCC(=O)NCCNc2cc(-n3nc(C)cc3C)nc(C)n2)n1 | 596 |
| Cc1noc(C)c1CNC(=O)c1cc(F)ccc1Cl | 726 |
| Cc1ccccc1CSc1ncnc2nc[nH]c12 | 744 |
| O=C(C1CCN(c2ccc(Sc3ccc(Cl)cc3)nn2)CC1)N1CCN(c2ccccn2)CC1 | 644 |

| Structure (SMILES) | RP-LC retention time [s] |
| --- | --- |
| CCOC(=O)c1c(S(=O)(=O)N2CCC(C(=O)Nc3cccc(Cl)c3)CC2)c(C)n(CC)c1C | 986 |
| O=C(NCCC1CCN(S(=O)(=O)c2ccc(F)cc2)CC1)NC1CCCCC1 | 890 |
| O=C(NC1CC1)c1ccc2ccnc(N3CCN(c4ccc(F)cc4)CC3)c2c1 | 688 |
| Cc1ccc2oc(C(=O)N3CCC(CCN4CCCCC4)CC3)cc(=O)c2c1 | 611 |
| O=C(CN1C(=O)CCCc2cc(S(=O)(=O)N3CCCC3)ccc21)Nc1ccccc1 | 803 |
| CCOc1cc(=O)n2c(c1C(=O)NC1CCc3ccccc31)CCCCC2 (stereo not given) | 766 |
| CC(C)NC(=O)CCC(=O)N1CCc2c(c(C(=O)N3CCCCC3)nn2C)C1 | 617 |
| O=C1CCCc2cc(S(=O)(=O)N3CCCC3C(=O)N3CCN(c4ccccc4)CC3)ccc2N1 (stereo not given) | 750 |
| NC(=O)c1oc2ccccc2c1NC(=O)c1coc2ccccc2c1=O | 769 |
| COc1ccc(C(=O)N2CCc3cc(-c4csc(C)n4)ccc32)cc1OC | 862 |
| CCN(CC)C(=O)c1ccc2c(c1)N(CC(=O)Nc1ccc(C(C)=O)cc1)C(=O)CO2 | 700 |
| CCCn1ccc2oc(C)c(C(=O)NCc3ccccc3Br)c2c1=O | 1110 |
| Cc1cc(C)c2c(-n3cccc3)c(C(=O)N3CCN(c4ccccn4)CC3)sc2n1 | 675 |
| CC[C@@H](CO)NC(=O)[C@@H]1C=C2c3cccc4[nH]cc(c34)C[C@H]2N(C)C1 | 616 |
| O=C1CCCc2cc(S(=O)(=O)N3CCC(C(=O)NCCC4=CCCCC4)CC3)ccc2N1 | 796 |
| COc1ccc(OC)c(NC(=O)C2=Cc3cc(Br)ccc3OC2)c1 | 1150 |
| O=C(Nc1cccc(OCc2nnc(-c3ccc(F)cc3)o2)c1)C1CC(=O)N(c2ccccc2)C1 (stereo not given) | 895 |
| CN(C)CCNC(=O)C1CCN(c2nn3cc(-c4ccc(F)cc4)nc3s2)CC1 | 636 |
| Cc1nn(C(=O)CCc2ccccc2)c(C)c1S(=O)(=O)N1CCCC1 | 1180 |
| O=C(c1ccoc1)N1CCCC(c2ccnc(-c3ccccc3)n2)C1 (stereo not given) | 892 |
| Cc1cc(C(=O)N2CCC3(CC2)C(=O)N(C)c2ccccc23)n(C)n1 | 724 |
| CC1CCN(C(=O)C2CCN(c3ccc4nnc(-c5ccccc5)n4n3)CC2)CC1 | 902 |
